# Laboratory results published in article PMC4890535, “On the Kinetic and Allosteric Regulatory Properties of the ADP-Glucose Pyrophosphorylase from Rhodococcus jostii: An Approach to Evaluate Glycogen Metabolism in Oleaginous Bacteria” (Frontiers in Microbiology, 2016).
# Read-outs that look alike come from different tables or passages of the source.
# B1: ADP-glucose pyrophosphorylase from Rhodococcus jostii RHA1 (enzyme, UniProt Q0S3Y4 1-404, looked up)
# chain: MRSQPHVLGIVLAGGEGKRLYPLTADRAKPAVPFGGAYRLIDFVLSNLVNAGYLRLCVLTQYKSHSLDRHISQTWRLSGFAGEYITPVPAQQRLGPRWYTGSADAILQSLNLVYDEDPEYIVVFGADHVYRMDPEQMVQHHIESGAGVTVAGIRVPRSEAFAFGCIDSDESGRIVQFLEKPAHPPGTPDDPNMTFASMGNYVFTTKVLVDAIRADSENSDSDHDMGGDIIPALVEAGEASVYDFKDNIVPGATDRDRGYWRDVGTLDAFYDAHMDLVSVHPIFNLYNRRWPIRGETENLAPAKFVQGGLAQESVVGAGCILSAATVRNSVLSSNVMVDSGATVEGSVLMPGVRIGKGAVVRRAILDKNVVVGDGEIIGVDLERDKQRFAVSNGGVVAIGKGVWI
# notes: ADP-glucose pyrophosphorylase (EC 2.7.7.27), product of glgC of Rhodococcus jostii RHA1; gene of 1,215 bp, theoretical molecular mass 43.85 kDa; amplified with primers from the initiation codon (changed from GTG to ATG) to downstream of the stop codon; Homotetramer by size exclusion chromatography; also called R. jostii ADP-Glc PPase; ADP-Glc PPase; source: E. coli BL21 (DE3) harboring pGro7 …
# Tests used:
# [1] = target: T1, R. jostii ADP-Glc PPase (RjoGlgC) (Rhodococcus jostii, UniProt Q0S3Y4); assay: colorimetric Pi release (Malachite Green) assay of ADP-Glc synthesis, Hill fit; format: biochemical
# T1 construct: gene glgC; full length, N-terminal His-tag (pET28c), E. coli BL21(DE3) with GroEL/GroES; start GTG changed to ATG, primer encodes MRSQPHV; homotetramer 190 kDa
# T1 sequence (Q0S3Y4 1-404): B1 chain
# Source text: colorimetric Pi release (Malachite Green) assay of ADP-Glc synthesis, Hill fit on R. jostii ADP-Glc PPase (RjoGlgC)
# [2] = target: T1, R. jostii ADP-Glc PPase (RjoGlgC); assay: as above; format: biochemical; conditions: no activator; co-substrate ATP; 5 mM MgCl2, pH 8.0, 37°C; read-out: S0.5
# [3] = substrate: O=P(O)(O)O[C@H]1O[C@H](CO)[C@@H](O)[C@H](O)[C@H]1O; assay: as above; format: biochemical, Rhodococcus jostii; conditions: no activator, co-substrate ATP saturating, 5 mM MgCl2, pH 8.0, 37°C
# [4] = substrate: Nc1ncnc2c1ncn2[C@@H]1O[C@H](COP(=O)(O)OP(=O)(O)OP(=O)(O)O)[C@@H](O)[C@H]1O; assay: as above; format: biochemical, Rhodococcus jostii; conditions: no activator, co-substrate Glc-1P saturating, 5 mM MgCl2, pH 8.0, 37°C
# [5] = target: the molecule itself; assay: SEC; Superdex 200 size exclusion chromatography of the purified enzyme; data not shown
# [6] = allosteric activator; 5 mM MgCl2, ATP and Glc-1P, pH 8.0, 37°C; read-out: A0.5
molecule,measurement,setting,value
O=P(O)(O)OC[C@H]1OC(O)(CO)[C@@H](O)[C@@H]1O (stereo partly drawn) [Fru-6P],EC50,[1]; [6],2200 ± 100 µM
O=P(O)(O)OC[C@H]1OC(O)[C@H](O)[C@@H](O)[C@@H]1O (stereo partly drawn) [Glc-6P],EC50,"[1]; read-out: A0.5; allosteric activator; 5 mM MgCl2, ATP and Glc-1P, pH 8.0, 37°C",88 ± 5 µM
N[C@H]1[C@@H](OP(=O)(O)O)O[C@H](CO)[C@@H](O)[C@@H]1O [GlcN-1P],Km,[2],> 6 mM
O=P(O)(O)OC[C@H]1OC(O)[C@@H](O)[C@@H](O)[C@@H]1O (stereo partly drawn) [Man-6P],EC50,[1]; [6],56 ± 5 µM
C=C(OP(=O)(O)O)C(=O)O [PEP],EC50,[1]; read-out: A0.5,300 ± 200 µM
O=P(O)(O)OC[C@H]1OC(O)[C@H](O)[C@@H]1O (stereo partly drawn) [Rib-5P],EC50,[1]; [6],4000 ± 500 µM
B1,K0.5,[3],1.8 ± 0.2 mM
same,K0.5,[4],1.2 ± 0.1 mM
same,stoichiometry N,[5],4
